This is an account of results in ChEMBL document CHEMBL3352242, “Structure-based design of substituted piperidines as a new class of highly efficacious oral direct Renin inhibitors” (ACS Med Chem Lett, 2014).

The nature of series [1]: Clearance in Sprague-Dawley rat at 2 mg/kg, iv. The note with it: in vivo. Details: dose 2 mg/kg, route intravenous. Format: ADME, organism-based.
The test system of series [2] is Rattus norvegicus. The series is described as follows: Reduction in mean arterial pressure in human renin and human angiotensinogen double transgenic rat at 1 mg/kg, po. In kind it is functional, Artery.
Series [3] has as its system Rattus norvegicus. The series is described as follows: Dose normalized Cmax inSprague-Dawley rat at 6 mg/kg, po. Format: ADME, organism-based, Sprague-Dawley. Set-up: dose 6 mg/kg, route oral. The note with it: in vivo.
Series [4] can be described thus: Half life in Sprague-Dawley rat at 2 mg/kg, iv. Details: dose 2 mg/kg, route intravenous. Particulars: in vivo. Format: ADME, organism-based.
In series [5] the test system is Rattus norvegicus. The series is described as follows: Reduction in mean arterial pressure in human renin and human angiotensinogen double transgenic rat at 3 mg/kg, po. In kind it is functional, Artery.
The test system of series [6] is Rattus norvegicus. The experiment in a line: Reduction in mean arterial pressure in human renin and human angiotensinogen double transgenic rat at 100 mg/kg, po. Format: functional, Artery.
Series [7] is described as follows: Oral bioavailability in Sprague-Dawley rat at 6 mg/kg. Format: ADME, organism-based. The note with it: in vivo.
For series [8], the system named is Rattus norvegicus. The series is described as follows: Reduction in mean arterial pressure in human renin and human angiotensinogen double transgenic rat at 30 mg/kg, po. Format: functional, Artery.
In series [9] the test system is Rattus norvegicus. The series is described as follows: Reduction in mean arterial pressure in human renin and human angiotensinogen double transgenic rat at 10 mg/kg, po. In kind it is functional, Artery.
Series [10] has as its system Rattus norvegicus. The experiment in a line: Dose normalized AUC (infinity) in Sprague-Dawley rat at 6 mg/kg, po. Format: ADME, organism-based. Details: dose 6 mg/kg, route oral. The note with it: in vivo.
The nature of series [11]: Volume of distribution at steady state in Sprague-Dawley rat at 2 mg/kg, iv. Format: ADME, organism-based. Set-up: dose 2 mg/kg, route intravenous. Particulars: in vivo, read-out: Vdss.
Series [12] can be described thus: Clearance in rat liver microsomes. Format: ADME. The note with it: read-out: CLH.
Series [13] deals with Voltage-gated inwardly rectifying potassium channel KCNH2 (Homo sapiens, UniProt Q12809). The experiment in a line: Displacement of [3H]dofetilide from human ERG expressed in HEK293 cell membranes incubated for 90 mins by beta-counting method.
Chain of Voltage-gated inwardly rectifying potassium channel KCNH2 (Q12809 whole entry): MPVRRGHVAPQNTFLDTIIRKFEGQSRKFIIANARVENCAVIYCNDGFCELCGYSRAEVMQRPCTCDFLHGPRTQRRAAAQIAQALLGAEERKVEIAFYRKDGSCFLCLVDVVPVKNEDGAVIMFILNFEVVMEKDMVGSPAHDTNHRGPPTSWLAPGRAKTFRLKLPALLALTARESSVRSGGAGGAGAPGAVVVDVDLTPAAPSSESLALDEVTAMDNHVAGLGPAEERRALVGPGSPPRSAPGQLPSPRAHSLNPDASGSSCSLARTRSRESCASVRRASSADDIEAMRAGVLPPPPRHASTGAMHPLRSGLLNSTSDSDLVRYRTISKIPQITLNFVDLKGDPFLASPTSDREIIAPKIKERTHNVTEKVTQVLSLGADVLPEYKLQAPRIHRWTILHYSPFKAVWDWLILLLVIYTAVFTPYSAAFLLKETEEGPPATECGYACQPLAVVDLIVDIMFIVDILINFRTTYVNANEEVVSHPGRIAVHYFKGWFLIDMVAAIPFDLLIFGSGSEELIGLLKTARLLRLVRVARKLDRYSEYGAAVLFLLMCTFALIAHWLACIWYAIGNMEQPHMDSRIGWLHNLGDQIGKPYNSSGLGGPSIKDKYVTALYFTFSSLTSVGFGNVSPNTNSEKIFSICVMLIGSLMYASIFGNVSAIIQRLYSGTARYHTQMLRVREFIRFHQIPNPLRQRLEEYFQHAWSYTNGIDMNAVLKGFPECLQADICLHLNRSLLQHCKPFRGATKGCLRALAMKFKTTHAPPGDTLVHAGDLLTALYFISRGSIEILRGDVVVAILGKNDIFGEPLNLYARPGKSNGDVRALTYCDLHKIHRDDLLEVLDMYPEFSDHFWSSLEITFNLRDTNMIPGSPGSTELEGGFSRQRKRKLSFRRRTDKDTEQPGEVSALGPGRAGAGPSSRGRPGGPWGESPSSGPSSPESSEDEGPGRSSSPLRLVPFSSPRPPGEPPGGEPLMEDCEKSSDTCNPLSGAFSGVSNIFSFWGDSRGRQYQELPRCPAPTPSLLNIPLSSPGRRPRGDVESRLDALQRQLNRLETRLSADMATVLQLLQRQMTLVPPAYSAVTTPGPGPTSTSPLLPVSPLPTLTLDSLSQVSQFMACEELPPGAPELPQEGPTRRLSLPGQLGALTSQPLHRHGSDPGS
The target in series [14] is T1, Renin (Homo sapiens, UniProt P00797).
T1 sequence (P00797 whole entry): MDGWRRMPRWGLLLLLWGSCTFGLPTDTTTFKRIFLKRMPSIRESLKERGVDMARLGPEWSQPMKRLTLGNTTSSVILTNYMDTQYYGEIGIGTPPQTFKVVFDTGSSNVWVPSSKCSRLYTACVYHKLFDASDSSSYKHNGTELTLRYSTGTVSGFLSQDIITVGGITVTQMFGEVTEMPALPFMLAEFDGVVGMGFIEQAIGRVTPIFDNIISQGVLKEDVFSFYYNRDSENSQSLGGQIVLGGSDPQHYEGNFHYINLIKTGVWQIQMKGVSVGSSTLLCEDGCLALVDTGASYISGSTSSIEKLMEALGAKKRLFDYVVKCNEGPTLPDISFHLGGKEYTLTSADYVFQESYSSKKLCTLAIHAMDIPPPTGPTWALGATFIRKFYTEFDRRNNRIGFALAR
The experiment in a line: Inhibition of human recombinant renin in presence of human plasma using Ac- IHPFHL-VIHNK-(DY-505-X5)-COOH substrate by fluorimetric assay.

Series [15] has as its target T1, Renin. The series is described as follows: Inhibition of human recombinant renin using fluorescence-quenched RE(EDANS)IHPFHLVIHTK(Dabcyl)R substrate by fluorimetric assay.
Series [16] in a line: Clearance in human liver microsomes. Format: ADME. Particulars: read-out: CLH.
The subject of series [17] is Rattus norvegicus. The series is described as follows: Reduction in mean arterial pressure in human renin and human angiotensinogen double transgenic rat at 1 to 100 mg/kg, po. In kind it is functional, organism-based. The note with it: Artery.
Series [18] concerns Rattus norvegicus. The experiment in a line: Reduction in mean arterial pressure in human renin and human angiotensinogen double transgenic rat at 100 mg/kg, po after 42 hrs. Format: functional, organism-based. Set-up: dose 100 mg/kg. The note with it: Artery.
Series [19] can be described thus: Lipophilicity, logD of the compound at pH 6.8. In kind it is physicochemical. The note with it: buffer.
For series [20], the target named is Beta-secretase 1 (Homo sapiens, UniProt P56817). The series is described as follows: Inhibition of human recombinant BACE1 expressed in SF9 cells using fluorescence-quenched RE(EDANS)-EVNLDAEF-K(DABSYL)-R substrate by fluorimetric assay.
Series [21] deals with Salmonella typhimurium. The experiment in a line: Mutagenicity in Salmonella typhimurium in absence of liver S9 fraction by Ames test. The note with it: salmonella enterica subsp. enterica serovar typhimurium. Format: toxicity, organism-based.
Series [22] concerns the target Cytochrome P450 2C9 (Homo sapiens, UniProt P11712). The series is described as follows: Inhibition of CYP2C9 (unknown origin). Format: ADME.
Series [23] deals with T2, Cathepsin E (Homo sapiens, UniProt P14091).
T2 sequence (P14091 whole entry): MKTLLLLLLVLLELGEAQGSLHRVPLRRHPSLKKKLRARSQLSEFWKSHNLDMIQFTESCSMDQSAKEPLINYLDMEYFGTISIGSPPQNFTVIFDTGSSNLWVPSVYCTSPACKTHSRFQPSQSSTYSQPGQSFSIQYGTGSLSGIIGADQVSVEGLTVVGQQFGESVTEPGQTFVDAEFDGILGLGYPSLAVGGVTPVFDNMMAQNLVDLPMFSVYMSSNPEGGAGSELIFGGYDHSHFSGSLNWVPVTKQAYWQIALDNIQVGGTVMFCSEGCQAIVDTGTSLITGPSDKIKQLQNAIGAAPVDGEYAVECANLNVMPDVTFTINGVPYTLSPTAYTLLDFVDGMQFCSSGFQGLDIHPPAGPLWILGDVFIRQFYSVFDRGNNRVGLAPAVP
The experiment in a line: Inhibition of human recombinant human procathepsin E expressed in Escherichia coli using fluorescence-quenched Ac-E-D(EDANS)-KPILFFRLG-K(Dabcyl)-E-Amid substrate by fluorimetric assay.

Series [24] has as its target Sodium channel protein type 2 subunit alpha (Homo sapiens, UniProt Q99250). The series is described as follows: Inhibition of Nav1.2 (unknown origin) by patch clamp assay.
For series [25], the system named is Salmonella typhimurium. The experiment in a line: Mutagenicity in Salmonella typhimurium in presence of liver S9 fraction by Ames test. The note with it: salmonella enterica subsp. enterica serovar typhimurium. Format: toxicity, organism-based.
In series [26] the target is T3, Beta-secretase 2 (Homo sapiens, UniProt Q9Y5Z0).
T3 sequence (Q9Y5Z0 whole entry): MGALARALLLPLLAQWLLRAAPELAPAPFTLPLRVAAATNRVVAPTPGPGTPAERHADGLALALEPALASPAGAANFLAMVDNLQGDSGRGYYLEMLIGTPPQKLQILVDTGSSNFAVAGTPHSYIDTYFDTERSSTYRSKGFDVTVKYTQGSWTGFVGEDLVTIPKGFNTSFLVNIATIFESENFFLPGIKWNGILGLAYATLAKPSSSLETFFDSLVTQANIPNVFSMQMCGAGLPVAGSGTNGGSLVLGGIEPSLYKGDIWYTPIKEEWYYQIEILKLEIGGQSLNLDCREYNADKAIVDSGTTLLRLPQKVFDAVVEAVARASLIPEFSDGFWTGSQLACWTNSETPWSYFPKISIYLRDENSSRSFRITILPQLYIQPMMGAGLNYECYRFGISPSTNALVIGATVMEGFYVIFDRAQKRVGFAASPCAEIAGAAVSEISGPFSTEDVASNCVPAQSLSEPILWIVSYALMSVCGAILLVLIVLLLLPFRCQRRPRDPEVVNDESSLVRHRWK
The series is described as follows: Inhibition of human recombinant BACE2 expressed in SF9 cells using fluorescence-quenched RE(EDANS)-EVNLDAEF-K(DABSYL)-R substrate by fluorimetric assay.

The target in series [27] is Pepsin A (Homo sapiens, UniProt P0DJD9). The series is described as follows: Inhibition of human recombinant pepsinogen A expressed in Escherichia coli using fluorescence-quenched Dabcyl-E-R-Nle-F-L-S-F-P-EDANS substrate by fluorimetric assay.
Chain of Pepsin A (P0DJD9 whole entry): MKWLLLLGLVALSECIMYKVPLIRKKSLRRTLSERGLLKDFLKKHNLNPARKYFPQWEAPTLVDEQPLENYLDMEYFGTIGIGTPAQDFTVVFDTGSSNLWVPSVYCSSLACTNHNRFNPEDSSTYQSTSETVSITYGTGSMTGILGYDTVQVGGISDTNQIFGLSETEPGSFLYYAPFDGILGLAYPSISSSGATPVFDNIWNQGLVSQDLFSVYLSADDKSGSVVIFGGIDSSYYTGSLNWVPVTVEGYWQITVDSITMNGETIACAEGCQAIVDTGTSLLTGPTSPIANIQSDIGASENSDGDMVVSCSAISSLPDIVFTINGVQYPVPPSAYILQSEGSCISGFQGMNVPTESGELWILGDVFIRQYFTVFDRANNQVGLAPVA
In series [28] the target is Cathepsin D (Homo sapiens, UniProt P07339). The series is described as follows: Inhibition of human recombinant procathepsin D expressed in SF9 cells using fluorescence-quenched Ac-E-D(EDANS)-KPILFFRLG-K(Dabcyl)-E-Amid substrate by fluorimetric assay.
Chain of Cathepsin D (P07339 65-162 limits assumed): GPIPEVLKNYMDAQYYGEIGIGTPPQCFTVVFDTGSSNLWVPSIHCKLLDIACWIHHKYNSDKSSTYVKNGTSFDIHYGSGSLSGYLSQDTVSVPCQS
Chain of Cathepsin D (P07339 169-412 limits assumed): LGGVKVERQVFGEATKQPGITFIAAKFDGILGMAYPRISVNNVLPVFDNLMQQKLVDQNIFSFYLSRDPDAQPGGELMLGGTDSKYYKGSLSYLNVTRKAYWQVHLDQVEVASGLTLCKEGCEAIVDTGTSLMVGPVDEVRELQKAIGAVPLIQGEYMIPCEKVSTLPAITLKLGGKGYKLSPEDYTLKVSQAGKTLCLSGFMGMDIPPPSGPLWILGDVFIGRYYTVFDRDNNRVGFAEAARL
Series [29] deals with Cytochrome P450 2D6 (Homo sapiens, UniProt P10635). The experiment in a line: Inhibition of CYP2D6 (unknown origin). Format: ADME.
Chain of Cytochrome P450 2D6 (P10635 whole entry): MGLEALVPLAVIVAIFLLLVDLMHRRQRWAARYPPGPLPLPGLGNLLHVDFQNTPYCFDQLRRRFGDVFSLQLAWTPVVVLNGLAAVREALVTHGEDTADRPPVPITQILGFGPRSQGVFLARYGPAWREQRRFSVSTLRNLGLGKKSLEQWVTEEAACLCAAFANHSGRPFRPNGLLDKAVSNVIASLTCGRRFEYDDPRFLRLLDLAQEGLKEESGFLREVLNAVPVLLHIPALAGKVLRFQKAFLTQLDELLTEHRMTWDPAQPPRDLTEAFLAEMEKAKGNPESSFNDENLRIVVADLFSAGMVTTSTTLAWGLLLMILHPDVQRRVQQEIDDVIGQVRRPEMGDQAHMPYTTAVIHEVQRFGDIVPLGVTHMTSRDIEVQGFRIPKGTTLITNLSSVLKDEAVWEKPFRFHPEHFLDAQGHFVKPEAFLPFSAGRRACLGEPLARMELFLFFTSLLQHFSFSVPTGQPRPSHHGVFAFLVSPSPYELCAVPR
For series [30], the target named is Cytochrome P450 3A4 (Homo sapiens, UniProt P08684). The series is described as follows: Inhibition of CYP3A4 (unknown origin). Format: ADME.
The nature of series [31]: Chemical stability at 80 degC. In kind it is physicochemical.
Series [32] concerns the target Sodium channel protein type 5 subunit alpha (Homo sapiens, UniProt Q14524). The series is described as follows: Inhibition of Nav1.5 (unknown origin) by patch clamp assay.
The target of series [33] is T4, Gastricsin (Homo sapiens, UniProt P20142).
T4 sequence (P20142 whole entry): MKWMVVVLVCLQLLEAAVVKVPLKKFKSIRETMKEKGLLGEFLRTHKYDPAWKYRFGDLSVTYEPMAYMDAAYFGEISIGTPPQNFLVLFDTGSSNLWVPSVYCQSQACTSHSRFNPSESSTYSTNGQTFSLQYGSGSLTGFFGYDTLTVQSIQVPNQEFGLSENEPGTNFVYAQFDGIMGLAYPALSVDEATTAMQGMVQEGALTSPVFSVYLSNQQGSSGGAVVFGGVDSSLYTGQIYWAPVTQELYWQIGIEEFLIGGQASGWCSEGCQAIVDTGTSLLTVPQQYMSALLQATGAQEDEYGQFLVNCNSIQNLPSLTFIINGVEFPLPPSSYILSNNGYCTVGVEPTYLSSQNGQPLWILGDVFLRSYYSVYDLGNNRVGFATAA
The experiment in a line: Inhibition of human recombinant pepsinogen C expressed in Escherichia coli using fluorescence-quenched Dabcyl-E-R-Nle-F-L-S-F-P-EDANS substrate by fluorimetric assay.

Series [34] in a line: Solubility in water at pH 1 to 9. Format: physicochemical.

Activity calls are given as the source filed them. No cut-off for these calls is given here.

Chain of Cytochrome P450 2C9 (P11712 whole entry): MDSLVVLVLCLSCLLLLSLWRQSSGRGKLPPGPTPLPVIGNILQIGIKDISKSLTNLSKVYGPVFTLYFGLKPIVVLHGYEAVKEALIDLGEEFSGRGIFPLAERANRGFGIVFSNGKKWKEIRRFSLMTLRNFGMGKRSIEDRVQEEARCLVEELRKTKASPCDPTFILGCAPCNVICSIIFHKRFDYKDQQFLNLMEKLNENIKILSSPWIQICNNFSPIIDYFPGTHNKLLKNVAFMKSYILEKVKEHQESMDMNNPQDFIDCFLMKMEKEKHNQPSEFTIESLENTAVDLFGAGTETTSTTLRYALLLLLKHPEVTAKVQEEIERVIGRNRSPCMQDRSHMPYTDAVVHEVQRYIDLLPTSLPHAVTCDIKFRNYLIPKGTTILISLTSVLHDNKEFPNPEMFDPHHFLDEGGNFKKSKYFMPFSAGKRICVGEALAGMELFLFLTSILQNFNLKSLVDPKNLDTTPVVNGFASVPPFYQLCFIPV
Chain of Sodium channel protein type 2 subunit alpha (Q99250 whole entry): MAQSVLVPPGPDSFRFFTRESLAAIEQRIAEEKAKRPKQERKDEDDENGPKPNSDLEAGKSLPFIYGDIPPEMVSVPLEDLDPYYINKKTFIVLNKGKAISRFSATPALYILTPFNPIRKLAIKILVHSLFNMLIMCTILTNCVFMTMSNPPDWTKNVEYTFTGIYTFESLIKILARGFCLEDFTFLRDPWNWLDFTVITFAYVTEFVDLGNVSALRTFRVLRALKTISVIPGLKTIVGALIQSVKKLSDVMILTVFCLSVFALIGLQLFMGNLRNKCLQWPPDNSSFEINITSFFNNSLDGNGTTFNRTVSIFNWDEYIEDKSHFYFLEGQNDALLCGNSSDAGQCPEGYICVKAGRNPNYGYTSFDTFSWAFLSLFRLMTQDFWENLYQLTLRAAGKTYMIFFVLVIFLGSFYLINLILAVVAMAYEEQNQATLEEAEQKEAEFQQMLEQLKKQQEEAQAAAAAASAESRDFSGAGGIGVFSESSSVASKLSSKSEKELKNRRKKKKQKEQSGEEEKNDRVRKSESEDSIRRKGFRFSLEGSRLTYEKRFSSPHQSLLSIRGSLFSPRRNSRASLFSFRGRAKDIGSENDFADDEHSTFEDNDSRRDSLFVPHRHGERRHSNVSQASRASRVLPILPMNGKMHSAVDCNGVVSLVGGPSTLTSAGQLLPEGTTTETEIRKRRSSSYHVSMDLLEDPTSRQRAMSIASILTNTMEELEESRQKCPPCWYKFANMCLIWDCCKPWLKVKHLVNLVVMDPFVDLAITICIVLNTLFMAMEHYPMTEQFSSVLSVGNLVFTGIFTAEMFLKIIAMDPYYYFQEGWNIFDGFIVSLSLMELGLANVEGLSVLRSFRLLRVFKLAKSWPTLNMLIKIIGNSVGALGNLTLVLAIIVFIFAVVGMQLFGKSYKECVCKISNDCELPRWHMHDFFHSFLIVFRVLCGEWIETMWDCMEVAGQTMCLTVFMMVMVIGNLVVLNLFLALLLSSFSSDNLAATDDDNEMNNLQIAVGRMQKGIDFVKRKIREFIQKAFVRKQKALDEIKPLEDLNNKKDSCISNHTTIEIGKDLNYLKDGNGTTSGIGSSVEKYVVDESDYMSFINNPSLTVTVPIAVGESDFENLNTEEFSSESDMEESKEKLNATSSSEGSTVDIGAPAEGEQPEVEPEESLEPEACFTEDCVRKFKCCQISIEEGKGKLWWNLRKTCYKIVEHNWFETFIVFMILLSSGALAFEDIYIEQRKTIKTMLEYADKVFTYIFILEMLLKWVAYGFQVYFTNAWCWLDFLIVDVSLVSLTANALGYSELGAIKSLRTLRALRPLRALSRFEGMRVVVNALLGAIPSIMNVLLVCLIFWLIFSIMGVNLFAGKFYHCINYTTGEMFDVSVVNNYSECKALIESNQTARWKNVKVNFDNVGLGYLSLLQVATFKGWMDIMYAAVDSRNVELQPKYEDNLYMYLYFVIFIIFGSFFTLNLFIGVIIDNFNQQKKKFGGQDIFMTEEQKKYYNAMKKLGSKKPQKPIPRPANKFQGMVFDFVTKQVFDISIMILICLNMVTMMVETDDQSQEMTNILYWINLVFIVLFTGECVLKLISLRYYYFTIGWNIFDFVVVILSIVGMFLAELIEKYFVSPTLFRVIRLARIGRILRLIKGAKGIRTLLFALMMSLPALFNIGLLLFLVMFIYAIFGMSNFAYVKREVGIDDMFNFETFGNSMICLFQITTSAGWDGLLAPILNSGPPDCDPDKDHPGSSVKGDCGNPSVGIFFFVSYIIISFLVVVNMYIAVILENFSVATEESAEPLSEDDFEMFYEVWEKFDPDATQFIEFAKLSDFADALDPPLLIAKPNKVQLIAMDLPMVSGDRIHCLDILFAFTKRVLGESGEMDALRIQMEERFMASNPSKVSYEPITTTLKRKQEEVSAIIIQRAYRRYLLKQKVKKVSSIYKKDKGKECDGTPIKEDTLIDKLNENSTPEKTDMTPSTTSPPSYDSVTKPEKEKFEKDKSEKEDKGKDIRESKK

`CCOC[C@@H](CC(C)C)NC(=O)[C@@H]1CNC[C@H](C(=O)N(c2ccc(C(C)C)cn2)C2CC2)[C@@H]1O.O=C(O)CCC(=O)O`: in [1], the clearance was 40 mL/min/kg. Also, the Activity in [2] came out at 33 mmHg; in series [5], 42 mmHg; in series [6], 66 mmHg; in series [8], 63 mmHg; in [9], 52 mmHg. This molecule returned a Cmax/dose in [3] of 136 nM/mg/kg. This molecule had a half-life in [4] of 408 min. This molecule came in with a bioavailability in series [7] of 61%. Besides, the AUC/dose in series [10] was 552 nM·h/mg/kg. Besides, the Vd in series [11] was determined as 4 L/kg.
Turning to `CCOC[C@@H](CC(C)C)NC(=O)[C@@H]1CNC[C@H](C(=O)N(c2cc(OC)c(C(C)C)cn2)C2CC2)C1`, the microsomal CLint in series [12] came out at 101 µL/min/mg; in series [16], 15 µL/min/mg. Moreover, the figures for the IC50 in series [13], in series [14] and in series [15] were above 30 µM, 0.4 nM and 0.2 nM, respectively.
`CCOC[C@@H](CC(C)C)NC(=O)[C@@H]1CNC[C@H](C(=O)N(c2ccc(C(C)C)cn2)C2CC2)[C@@H]1O` [listing 1 of 3 here]: the Activity result in [17] was “Dose-dependent effect”. Moreover, the outcome in series [18] was Active.
Turning to `CCOC[C@@H](CC(C)C)NC(=O)[C@@H]1CNC[C@H](C(=O)N(c2ccc(C(C)C)c(OCCCOC)n2)C2CC2)C1`, the microsomal CLint in [12] amounted to 252 µL/min/mg; in series [16], 289 µL/min/mg. In addition, the IC50 in series [13] worked out at 3.3 µM; in series [14] it was 6 nM; in series [15], 0.8 nM.
`CCOC[C@@H](CC(C)C)NC(=O)[C@@H]1CNC[C@H](C(=O)N(c2ccc(C(C)C)cn2)C2CC2)[C@@H]1O` [listing 2 of 3 here] displayed a logD in series [19] of 0.93. The IC50 in series [20], in series [22], in [23], in series [24], in series [26] and in [27] was above 30 µM in each case. The IC50 in series [28], in series [29], in series [30], in [32] and in series [33] was above 30 µM each time. Also, the Activity result in series [21] and in series [25] was “Non-toxic” in each case. This molecule registered a Stability in series [31] of 3 days. This molecule displayed a solubility in series [34] above 10000 µg/mL.
In the case of `CCOC[C@@H](CC(C)C)NC(=O)[C@@H]1CNC[C@H](C(=O)N(c2ccc(C(C)C)cn2)C2CC2)[C@@H]1O` [listing 3 of 3 here], the values for the microsomal CLint in series [12] and in [16] were 52 µL/min/mg and below 3.4 µL/min/mg, respectively. Further, the IC50 was above 30 µM in series [13], 0.6 nM in series [14] and 0.2 nM in series [15].
